Reference: US10376481B2, “Compounds and methods for inhibiting NHE-mediated antiport in the treatment of disorders associated with fluid retention or salt overload and gastrointestinal tract disorders” (ARDELYX, INC, priority 2012, dated 2019)

Key:
[1] = human absorption data, from Ertl et al.; cited from earlier work
human NHE3 [2] = target: T1, human NHE3 (Homo sapiens, UniProt P48764); assay: Cell-based assay of NHE-3 activity (persistent inhibition), human; conditions: PS120 fibroblasts stably expressing human NHE3, 60 min incubation then washout; for IC50: read-out: pIC50 (human Persistence assay) (converted)
T1 sequence (P48764 26-834): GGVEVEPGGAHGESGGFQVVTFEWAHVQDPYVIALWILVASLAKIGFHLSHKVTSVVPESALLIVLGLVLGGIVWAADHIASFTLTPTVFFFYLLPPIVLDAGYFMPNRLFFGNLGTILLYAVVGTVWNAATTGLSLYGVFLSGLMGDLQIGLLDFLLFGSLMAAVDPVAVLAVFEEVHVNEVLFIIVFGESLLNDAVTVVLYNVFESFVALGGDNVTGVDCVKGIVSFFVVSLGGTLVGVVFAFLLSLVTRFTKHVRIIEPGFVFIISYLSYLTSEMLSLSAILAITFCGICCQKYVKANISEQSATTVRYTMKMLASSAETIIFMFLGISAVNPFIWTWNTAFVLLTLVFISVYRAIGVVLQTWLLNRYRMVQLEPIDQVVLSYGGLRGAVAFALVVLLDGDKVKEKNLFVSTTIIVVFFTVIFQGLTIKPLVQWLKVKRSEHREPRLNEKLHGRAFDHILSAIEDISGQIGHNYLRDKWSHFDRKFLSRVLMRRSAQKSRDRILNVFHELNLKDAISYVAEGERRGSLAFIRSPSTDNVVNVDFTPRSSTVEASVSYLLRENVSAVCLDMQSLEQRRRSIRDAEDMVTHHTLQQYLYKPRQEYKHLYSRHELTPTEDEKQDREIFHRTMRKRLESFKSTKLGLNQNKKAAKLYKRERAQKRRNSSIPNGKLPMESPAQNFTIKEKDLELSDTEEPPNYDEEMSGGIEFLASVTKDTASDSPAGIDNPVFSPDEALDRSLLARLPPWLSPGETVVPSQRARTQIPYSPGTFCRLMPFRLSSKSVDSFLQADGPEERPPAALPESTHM
Experimental: The ability of compounds to inhibit human and rat NHE-3-mediated Na^+-dependent H^+ antiport after application and washout was measured using a modification of the pH sensitive dye method described above. PS120 fibroblasts stably expressing human NHE3 were obtained from Mark Donowitz (Baltimore, Md.). Opossum kidney (OK) cells were obtained from the ATCC and propagated per their instructions. The rat NHE-3 gene was introduced into OK cells via electroporation, and cells were seeded into 96 well plates and grown overnight. Medium was aspirated from the wells, cells were washed once with NaCl-HEPES buffer (100 mM NaCl, 50 mM HEPES, 10 mM glucose, 5 mM KCl, 2 mM CaCl2, 1 mM MgCl2, pH 7.4), then overlayed with NaCl-HEPES buffer containing 0-30 μM test compound. After a 60 min incubation at room temperature, the test drug containing buffer was aspirated from the cells. Following aspiration, cells were washed once with NaCl-HEPES buffer without drug, then incubated for 30 min at 37° C. with NH4Cl-HEPES buffer (20 mM NH4Cl, 80 mM NaCl, 50 mM HEPES, 5 mM KCl, 2 mM CaCl2, 1 mM MgCl2, pH 7.4) containing 5 μM BCECF-AM. Cells were washed once with Ammonium free, Na^+-free HEPES (100 mM choline, 50 mM HEPES, 10 mM glucose, 5 mM KCl, 2 mM CaCl2, 1 mM MgCl2, pH 7.4) and incubated in the same buffer for 10 minutes at room temperature to lower intracellular pH. NHE-3-mediated recovery of neutral intracellular pH was initiated (10 min after compound washout) by addition of Na-HEPES buffer. […] Changes in intracellular pH were monitored using a FLIPR Tetra® (Molecular Devices, Sunnyvale, Calif.) by excitation at λex 439 to 505 nm, and measuring BCECF fluorescence at λem 538 nm. The initial rate of the fluorescence ratio change was used as a measure of NHE-mediated Na^+/H^+ activity, and reported as the change in fluorescence ratio per minute. Initial rates were plotted as the average 2 or more replicates, and pIC50 values were estimated using GraphPad Prism.

human NHE3 [3] = target: T1, human NHE3; assay: Cell-based assay of NHE-3 activity (human NHE3 inhibition assay); parameters: expressed in transfected cells; host or cells: Opossum kidney (OK) cells (ATCC), electroporated; conditions: OK cells with human NHE-3 gene, BCECF pH recovery, 0-30 μM test compound; read-out: Human NHE3 pIC50 (converted)
Experimental: Rat or human NHE-3-mediated Na^+-dependent H^+ antiport was measured using a modification of the pH sensitive dye method originally reported by Paradiso (Proc. Natl. Acad. Sci. USA. (1984) 81(23): 7436-7440). Opossum kidney (OK) cells were obtained from the ATCC and propagated per their instructions. The rat NHE-3 gene (GenBank M85300) or the human NHE-3 gene (GenBank NM_004174.1) was introduced into OK cells via electroporation, and cells were seeded into 96 well plates and grown overnight. Medium was aspirated from the wells, cells were washed twice with NaCl-HEPES buffer (100 mM NaCl, 50 mM HEPES, 10 mM glucose, 5 mM KCl, 2 mM CaCl2, 1 mM MgCl2, pH 7.4), then incubated for 30 min at room temperature with NH4Cl-HEPES buffer (20 mM NH4Cl, 80 mM NaCl, 50 mM HEPES, 5 mM KCl, 2 mM CaCl2, 1 mM MgCl2, pH 7.4) containing 5 μM bis(acetoxymethyl) 3,3′-(3′,6′-bis(acetoxymethoxy)-5-((acetoxymethoxy)carbonyl)-3-oxo-3H-spiro[isobenzofuran-1,9′-xanthene]-2′,7′-diyl)dipropanoate (BCECF-AM). Cells were washed twice with Ammonium free, Na^+-free HEPES (100 mM choline, 50 mM HEPES, 10 mM glucose, 5 mM KCl, 2 mM CaCl2, 1 mM MgCl2, pH 7.4) and incubated in the same buffer for 10 minutes at room temperature to lower intracellular pH. […] Initial rates were plotted as the average 2 or more replicates, and pIC50 values were estimated using GraphPad Prism.

human NHE3 [4] = target: T1, human NHE3; assay: Cell-based assay of NHE-3 activity (pre-incubation inhibition), human; conditions: for IC50: PS120 fibroblasts stably expressing human NHE3, 10 min pre-incubation with 0-30 μM test compound, read-out: pIC50 (human Preincubation assay) (converted); for % inhibition (human Preincubation assay): PS120 fibroblasts stably expressing human NHE3, pre-incubation with test compound
Experimental: Rat and human NHE-3-mediated Na^+-dependent H^+ antiport was measured using a modification of the pH sensitive dye method originally reported by Paradiso (Proc. Natl. Acad. Sci. USA. (1984) 81(23): 7436-7440, which is hereby incorporated by reference in its entirety). PS120 fibroblasts stably expressing human NHE3 were obtained from Mark Donowitz (Baltimore, Md.). Opossum kidney (OK) cells were obtained from the ATCC and propagated per their instructions. The rat NHE-3 gene (GenBank M85300) was introduced into OK cells via electroporation, and cells were seeded into 96 well plates and grown overnight. Medium was aspirated from the wells then incubated for 30 min at 37° C. with NH4Cl-HEPES buffer (20 mM NH4Cl, 80 mM NaCl, 50 mM HEPES, 5 mM KCl, 2 mM CaCl2, 1 mM MgCl2, pH 7.4) containing 5 μM BCECF-AM. Cells were washed once with Ammonium free, Nat-free HEPES (100 mM choline, 50 mM HEPES, 10 mM glucose, 5 mM KCl, 2 mM CaCl2, 1 mM MgCl2, pH 7.4) and incubated in the same buffer for 10 minutes at room temperature to lower intracellular pH with 0-30 μM test compound. […] Changes in intracellular pH were monitored using a FLIPR Tetra® (Molecular Devices, Sunnyvale, Calif.) by excitation at λex 439 to 505 nm, and measuring BCECF fluorescence at λem 538 nm. The initial rate of the fluorescence ratio change was used as a measure of NHE-mediated Na^+/H^+ activity, and reported as the change in fluorescence ratio per minute. Initial rates were plotted as the average 2 or more replicates, and pIC50 values were estimated using GraphPad Prism.

[5] = system: gastrointestinal motility; assay: Gastrointestinal transit (Evans Blue dye) in opioid induced constipation model; format: in vivo, mice; conditions: oral vehicle, loperamide 3 mg/kg subcutaneous, 30-minute period; vehicle/vehicle approximately 70%
Experimental: Gastrointestinal transit is measured in mice treated with the peripherally acting μ-opioid agonist loperamide to assess the ability of selected example compounds to restore gastrointestinal motility in a model of opioid induced constipation. Approximately eight-week old, female, CD1 […] are purchased from Envigo (Livermore, Calif.), are housed 4 per cage and acclimated for at least 48 hours before study initiation. Animals are fed standard laboratory rodent chow Harlan Teklad Global 2018 (Maddison, Wis.). […] 30 minutes later, animals are euthanized by carbon dioxide inhalation, and the length from the pylorus to cecum (whole length of the small intestine) and the length from the pylorus to the Evans Blue dye front are measured and recorded. For an individual animal, the length travelled by the Evans Blue dye front is divided by the length of the whole small intestine, measured from the pylorus to the cecum, and multiplied by 100, to provide the distance of the small intestine travelled by the dye as a percentage. […] The effect of example compounds on GIT motility in the presence of loperamide is calculated as the ability to restore vehicle/vehicle transit distance from the vehicle/loperamide transit, expressed as a percentage.

SMILES | % FA [1] | further results
OC[C@H]1O[C@@H](O[C@@H]2[C@@H](CO)OC(O)(CO)[C@H]2O)[C@H](O)[C@@H](O)[C@H]1O (mixture of isomers) [lactulose] | 0.6% | –
O=C(NCCCCNC(=O)NCCOCCOCCNS(=O)(=O)c1ccc(O[C@H]2c3cc(Cl)cc(Cl)c3C[C@@H]2N2CCCC2)cc1)NCCOCCOCCNS(=O)(=O)c1ccc(O[C@H]2c3cc(Cl)cc(Cl)c3C[C@@H]2N2CCCC2)cc1 [Example 17] | – | % inhibition (human Persistence assay) (human NHE3 [2]): C (>70%); IC50 (human NHE3 [2]): < 100 nM; IC50 (human NHE3 [3]): < 100 nM; IC50 (human NHE3 [4]): < 100 nM; % inhibition (human Preincubation assay) (human NHE3 [4]): C (>70%)
N[C@@H]1CCCN([C@H]2Cc3c(F)cc(Cl)cc3[C@@H]2Oc2ccc(S(=O)(=O)NCCOCCOCCNC(=O)NCCCCNC(=O)NCCOCCOCCNS(=O)(=O)c3ccc(O[C@H]4c5cc(Cl)cc(F)c5C[C@@H]4N4CCC[C@@H](N)C4)cc3)cc2)C1 [Example 29] | – | % inhibition (human Persistence assay) (human NHE3 [2]): B (40-70%); IC50 (human NHE3 [2]): > 1000 nM; IC50 (human NHE3 [3]): < 100 nM; IC50 (human NHE3 [4]): < 100 nM; % inhibition (human Preincubation assay) (human NHE3 [4]): C (>70%)
C=CCc1ccccc1OCC(O)CNC(C)C (stereo not drawn) [alprenolol] | 96% | –
O=C(O)P(=O)(O)O [foscarnet] | 17% | –
CN(C)C(=O)C(CCN1CCC(O)(c2ccc(Cl)cc2)CC1)(c1ccccc1)c1ccccc1 [loperamide] | – | distance of the small intestine travelled by the Evans Blue dye front [5]: ~25%
OC[C@@H](O)[C@@H](O)[C@H](O)[C@H](O)CO [mannitol] | 26% | –
Cc1ccccc1N1C(=O)c2cc(S(N)(=O)=O)c(Cl)cc2NC1C (stereo not drawn) [metolazone] | 64% | –
O=C(O)c1cc(/N=N/c2ccc(O)c(C(=O)O)c2)ccc1O [olsalazine] | 2.3% | –
C=CCOc1ccccc1OCC(O)CNC(C)C (stereo not drawn) [oxprenolol] | 97% | –
CC(C)NCC(O)COc1cccc2[nH]ccc12 (stereo not drawn) [pindolol] | 92% | –
CC(=O)Nc1ccc(OCC(O)CNC(C)C)cc1 (stereo not drawn) [practolol] | 95% | –
OC[C@H]1O[C@H](OC[C@H]2O[C@H](O[C@]3(CO)O[C@H](CO)[C@@H](O)[C@@H]3O)[C@H](O)[C@@H](O)[C@@H]2O)[C@H](O)[C@@H](O)[C@H]1O [raffinose] | 0.3% | –
O=C(O)c1cc(/N=N/c2ccc(S(=O)(=O)Nc3ccccn3)cc2)ccc1O [sulfasalazine] | 12% | –
CCN1CCCC1CNC(=O)c1cc(S(N)(=O)=O)ccc1OC (stereo not drawn) [sulpiride] | 36% | –
NC[C@H]1CC[C@H](C(=O)O)CC1 [tranexamic acid] | 55% | –
